# Test results as given in US9856216B2, “Compounds as TNIK, IKKε and TBK1 inhibitors and pharmaceutical composition comprising same” (GREEN CROSS CORPORATION, priority 2015, dated 2018).
# Target: T1, TNIK (Homo sapiens, UniProt Q9UKE5)
# T1 construct: purchased Promega V4158
# Assay: ADP-Glo Kinase Assay, inhibition activity on TNIK
# Format: biochemical
# Details: not given
# Experimental: The inhibition activities on TNIK, IKKε and TBK1 were measured by a luminometer, TNIK/IKKε/TBK1 Kinase Enzyme System (Promega, Ca# V4158; Invitrogen, PR8031B, Promega, Ca# V3991) and ADP-Glo Kinase Assay using ADP-Glo™ Kinase Analysis Kit (Promega, Ca# V9101) and a kinase reaction buffer [40 mM Tris(pH 7.5), 20 mM MgCl2, 0.1 mg/mL BSA] in accordance with the manufacturer's protocol.
# T1 sequence (Q9UKE5 1-367 limits assumed): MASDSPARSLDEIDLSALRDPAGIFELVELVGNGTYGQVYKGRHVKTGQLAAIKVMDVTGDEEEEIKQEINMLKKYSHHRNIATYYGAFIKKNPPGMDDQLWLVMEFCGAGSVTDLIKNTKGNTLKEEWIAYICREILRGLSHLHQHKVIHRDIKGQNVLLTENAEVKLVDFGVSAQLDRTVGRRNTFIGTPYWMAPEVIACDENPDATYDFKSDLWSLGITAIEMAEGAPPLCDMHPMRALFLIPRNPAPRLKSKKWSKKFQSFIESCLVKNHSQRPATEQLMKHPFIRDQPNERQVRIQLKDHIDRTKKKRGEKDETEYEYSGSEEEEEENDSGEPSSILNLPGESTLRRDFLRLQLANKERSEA
row,TNIK (μM),Structure (SMILES)
1,Insoluble,"O=C(Nc1ccc(-c2ccc(F)nc2)c2c1C(=O)NC2)c1ccccc1 [Example 199, N-(7-(6-fluoropyridin-3-yl)-3-oxoisoindolin-4-yl)benzamide]"
2,Insoluble,"COc1ccc(-c2ccc(NC(=O)c3ccccc3)c3c2CNC3=O)cn1 [Example 200, N-(7-(6-methoxypyridin-3-yl)-3-oxoisoindolin-4-yl)benzamide]"

# Same assay, conditions: read-out: TNIK
row,IC50 [nM],Structure (SMILES)
1,17700,"O=C(Nc1ccc(-c2ccc(CN3CCCCC3)s2)c2c1C(=O)NC2)c1ccccc1 [Example 196, N-(3-oxo-7-(5-(piperidin-1-ylmethyl)thiophen-2-yl)isoindolin-4-yl)benzamide]"
2,> 20000,"O=C(Nc1ccc(-c2ccc(CN3CCOCC3)s2)c2c1C(=O)NC2)c1ccccc1 [Example 197, N-(7-(5-(morpholinomethyl)thiophen-2-yl)-3-oxoisoindolin-4-yl)benzamide]"
3,> 20000,"CC(C)(C)OC(=O)N1CCN(Cc2ccc(-c3ccc(NC(=O)c4ccccc4)c4c3CNC4=O)s2)CC1 [Example 198, tert-Butyl 4-((5-(7-benzamido-1-oxoisoindolin-4-yl)thiophen-2-yl)methyl)piperazine-1-carboxylate]"
4,15200,"O=C(Nc1ccc(-c2ccccc2)c2c1C(=O)NC2)c1ccccc1Cl [Example 201, 2-Chloro-N-(3-oxo-7-phenylisoindolin-4-yl)benzamide]"
5,> 20000,"COc1cccc(C(=O)Nc2ccc(-c3ccccc3)c3c2C(=O)NC3)c1 [Example 202, 3-Methoxy-N-(3-oxo-7-phenylisoindolin-4-yl)benzamide]"
6,350,"O=C(Nc1ccc(-c2ccccc2)c2c1C(=O)NC2)c1cccs1 [Example 203, N-(3-oxo-7-phenylisoindolin-4-yl)thiophene-2-carboxamide]"
7,> 20000,"COc1ccc(C(=O)Nc2ccc(-c3ccc(C(C)=O)cc3)c3c2C(=O)NC3)cc1 [Example 204, N-(7-(4-acetylphenyl)-3-oxoisoindolin-4-yl)-4-methoxy benzamide]"
8,> 20000,"O=C(Nc1ccc(-c2ccc(F)cc2)c2c1C(=O)NC2)c1ccccc1 [Example 205, N-(7-(4-fluorophenyl)-3-oxoisoindolin-4-yl)benzamide]"
9,> 20000,"N#Cc1ccc(-c2ccc(NC(=O)c3ccccc3)c3c2CNC3=O)cc1 [Example 207, N-(7-(4-cyanophenyl)-3-oxoisoindolin-4-yl)benzamide]"
10,> 20000,"N#Cc1ccc(C(=O)Nc2ccc(-c3ccccc3)c3c2C(=O)NC3)cc1 [Example 208, 4-Cyano-N-(3-oxo-7-phenylisoindolin-4-yl)benzamide]"
11,2800,"Cc1ccc(-c2ccc(NC(=O)c3ccccc3)c3c2CNC3=O)cc1 [Example 209, N-(3-oxo-7-(p-tolyl)isoindolin-4-yl)benzamide]"
12,> 20000,"O=C(Nc1ccc(-c2ccc(C(F)(F)F)cc2)c2c1C(=O)NC2)c1ccccc1 [Example 210, N-(3-oxo-7-(4-(trifluoromethyl)phenyl)isoindolin-4-yl) benzamide]"
13,700,"O=C(Nc1ccc(-c2ccccc2)c2c1C(=O)NC2)c1ccncc1 [Example 211, N-(3-oxo-7-phenylisoindolin-4-yl)isonicotinamide]"
14,300,"O=C(Nc1ccc(-c2ccccc2)c2c1C(=O)NC2)c1ccco1 [Example 212, N-(3-oxo-7-phenylisoindolin-4-yl)furan-2-carboxamide]"
15,600,"O=C(Nc1ccc(-c2ccccc2)c2c1C(=O)NC2)c1cccnc1 [Example 213, N-(3-oxo-7-phenylisoindolin-4-yl)nicotinamide]"
16,> 20000,"O=C(Nc1ccc(-c2ccc3ncccc3c2)c2c1C(=O)NC2)c1ccc(F)cc1 [Example 214, 4-Fluoro-N-(3-oxo-7-(quinolin-6-yl)isoindolin-4-yl)benzamide]"
17,240,"O=C(Nc1ccc(-c2cccc3ncccc23)c2c1C(=O)NC2)c1ccc(F)cc1 [Example 215, 4-Fluoro-N-(3-oxo-7-(quinolin-5-yl)isoindolin-4-yl)benzamide]"

row,IC50 [nM],Structure (SMILES)
1,160,"O=C(Nc1ccc(-c2ccnc3ccccc23)c2c1C(=O)NC2)c1ccc(F)cc1 [Example 216, 4-Fluoro-N-(3-oxo-7-(quinolin-4-yl)isoindolin-4-yl)benzamide]"
2,2950,"O=C(Nc1ccc(-c2cccc3cc[nH]c23)c2c1C(=O)NC2)c1ccc(F)cc1 [Example 217, N-(7-(1H-indol-7-yl)-3-oxoisoindolin-4-yl)-4-fluorobenzamide]"
3,590,"O=C(Nc1ccc(-c2cccc3[nH]cnc23)c2c1C(=O)NC2)c1ccc(F)cc1 [Example 218, N-(7-(1H-benzo[d]imidazol-4-yl)-3-oxoisoindolin-4-yl)-4-fluorobenzamide]"
4,13900,"O=C(Nc1ccc(Cc2ccccc2)c2c1C(=O)NC2)c1ccc(F)cc1 [Example 219, N-(7-benzyl-3-oxoisoindolin-4-yl)-4-fluorobenzamide]"
5,1000,"COc1cccc(-c2ccc(NC(=O)c3ccco3)c3c2CN(C(=O)c2ccco2)C3=O)c1OC [Example 224, N-(7-(2,3-dimethoxyphenyl)-2-(furan-2-carbonyl)-3-oxoisoindolin-4-yl)furan-2-carboxamide]"
6,> 20000,"COc1cccc(-c2ccc(NC(=O)c3cccs3)c3c2CN(C(=O)c2cccs2)C3=O)c1OC [Example 225, N-(7-(2,3-dimethoxyphenyl)-3-oxo-2-(thiophene-2-carbonyl)isoindolin-4-yl)thiophene-2-carboxamide]"
7,2500,"O=C(Nc1ccc(F)cc1)Nc1ccc(-c2ccccc2)c2c1C(=O)NC2 [Example 226, 1-(4-Fluorophenyl)-3-(3-oxo-7-phenylisoindolin-4-yl)urea]"
8,1200,"O=C(Nc1ccccc1)Nc1ccc(-c2ccccc2)c2c1C(=O)NC2 [Example 227, 1-(3-Oxo-7-phenylisoindolin-4-yl)-3-phenylurea]"
9,> 20000,"N#Cc1ccc(NC(=O)Nc2ccc(-c3ccccc3)c3c2C(=O)NC3)cc1 [Example 228, 1-(4-Cyanophenyl)-3-(3-oxo-7-phenylisoindolin-4-yl)urea]"
10,1100,"CCCCNC(=O)Nc1ccc(-c2ccccc2)c2c1C(=O)NC2 [Example 229, 1-Butyl-3-(3-oxo-7-phenylisoindolin-4-yl)urea]"
11,900,"COc1ccc(NC(=O)Nc2ccc(-c3ccccc3)c3c2C(=O)NC3)cc1 [Example 230, 1-(4-Methoxyphenyl)-3-(3-oxo-7-phenylisoindolin-4-yl)urea]"
12,> 20000,"O=C(Nc1ccc(-c2ccccc2)c2c1C(=O)NC2)NC1CCCCC1 [Example 231, 1-Cyclohexyl-3-(3-oxo-7-phenylisoindolin-4-yl)urea]"
13,2100,"Cc1ccc(NC(=O)Nc2ccc(-c3ccccc3)c3c2C(=O)NC3)cc1 [Example 232, 1-(3-Oxo-7-phenylisoindolin-4-yl)-3-(p-tolyl)urea]"
14,16700,"COc1ccccc1NC(=O)Nc1ccc(-c2ccccc2)c2c1C(=O)NC2 [Example 233, 1-(2-Methoxyphenyl)-3-(3-oxo-7-phenylisoindolin-4-yl)urea]"
15,1900,"CC(C)NC(=O)Nc1ccc(-c2ccccc2)c2c1C(=O)NC2 [Example 234, 1-Isopropyl-3-(3-oxo-7-phenylisoindolin-4-yl)urea]"
16,4600,"O=C(Nc1ccc([N+](=O)[O-])cc1)Nc1ccc(-c2ccccc2)c2c1C(=O)NC2 [Example 235, 1-(4-Nitrophenyl)-3-(3-oxo-7-phenylisoindolin-4-yl)urea]"
